What was measured:
[1] = target: Histone-lysine N-methyltransferase KMT5C (Homo sapiens, UniProt Q86Y97); experiment: Inhibition of human SUV420H2 using Biotin-tagged H4K20me1 and [3H-SAM] as substrate incubated for 2 hrs by scintillation proximity assay
[2] = target: Histone-lysine N-methyltransferase KMT5B (Homo sapiens, UniProt Q4FZB7); experiment: Inhibition of recombinant human 6His-(Tev)-G-SUV420H1 (69 to 335 residues) using Biotin-tagged H4K20me1 and [3H-SAM] as substrate incubated for 2 hrs by scintillation proximity assay
Sequence of Histone-lysine N-methyltransferase KMT5B (Q4FZB7 whole entry, the tested form may be a part): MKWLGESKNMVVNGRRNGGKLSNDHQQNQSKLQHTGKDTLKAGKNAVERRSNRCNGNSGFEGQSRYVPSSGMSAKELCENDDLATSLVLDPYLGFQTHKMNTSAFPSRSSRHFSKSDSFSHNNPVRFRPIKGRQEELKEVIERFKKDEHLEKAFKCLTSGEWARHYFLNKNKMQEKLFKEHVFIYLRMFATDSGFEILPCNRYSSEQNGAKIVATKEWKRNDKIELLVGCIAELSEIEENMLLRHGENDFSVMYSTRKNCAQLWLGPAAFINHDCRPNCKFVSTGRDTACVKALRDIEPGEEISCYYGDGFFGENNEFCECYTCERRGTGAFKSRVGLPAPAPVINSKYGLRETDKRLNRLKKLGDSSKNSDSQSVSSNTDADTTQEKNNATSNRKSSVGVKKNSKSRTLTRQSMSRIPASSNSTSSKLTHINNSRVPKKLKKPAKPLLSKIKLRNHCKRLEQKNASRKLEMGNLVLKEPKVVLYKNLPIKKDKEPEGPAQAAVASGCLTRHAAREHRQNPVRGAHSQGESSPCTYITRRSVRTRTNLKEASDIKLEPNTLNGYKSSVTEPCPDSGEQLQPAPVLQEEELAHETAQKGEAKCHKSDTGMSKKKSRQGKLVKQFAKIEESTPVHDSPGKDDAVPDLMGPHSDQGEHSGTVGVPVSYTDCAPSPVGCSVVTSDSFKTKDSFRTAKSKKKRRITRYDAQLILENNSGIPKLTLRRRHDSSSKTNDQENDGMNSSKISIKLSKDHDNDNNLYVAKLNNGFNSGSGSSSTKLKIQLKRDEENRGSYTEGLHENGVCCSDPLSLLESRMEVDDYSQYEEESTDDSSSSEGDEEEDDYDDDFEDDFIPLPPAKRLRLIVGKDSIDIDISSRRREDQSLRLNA

[3] = Inhibition of Rat GABAA assessed as inhibition constant in the presence of PBR
[4] = target: Kappa-type opioid receptor (Homo sapiens, UniProt P41145); experiment: Inhibition of human kappa opioid receptor expressed in stable HEK cells assessed as inhibition constant; assay type: cell-based
Sequence of Kappa-type opioid receptor (P41145 whole entry): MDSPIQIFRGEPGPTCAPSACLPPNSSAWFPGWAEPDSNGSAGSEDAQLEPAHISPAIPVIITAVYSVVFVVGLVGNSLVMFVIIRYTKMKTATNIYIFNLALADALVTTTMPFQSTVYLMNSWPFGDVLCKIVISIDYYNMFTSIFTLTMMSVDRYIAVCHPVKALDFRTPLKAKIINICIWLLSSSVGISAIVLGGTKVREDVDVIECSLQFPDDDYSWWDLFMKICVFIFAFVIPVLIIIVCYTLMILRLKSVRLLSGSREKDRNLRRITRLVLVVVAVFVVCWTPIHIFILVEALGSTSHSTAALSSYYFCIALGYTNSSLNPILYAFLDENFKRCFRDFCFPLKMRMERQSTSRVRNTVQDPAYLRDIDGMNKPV

[5] = target: T1, 5-hydroxytryptamine receptor 2A (Homo sapiens, UniProt P28223); experiment: Inhibition of human 5-HT2A receptor expressed in HEK293T cells assessed as inhibition constant; assay type: cell-based
T1 sequence (P28223 whole entry): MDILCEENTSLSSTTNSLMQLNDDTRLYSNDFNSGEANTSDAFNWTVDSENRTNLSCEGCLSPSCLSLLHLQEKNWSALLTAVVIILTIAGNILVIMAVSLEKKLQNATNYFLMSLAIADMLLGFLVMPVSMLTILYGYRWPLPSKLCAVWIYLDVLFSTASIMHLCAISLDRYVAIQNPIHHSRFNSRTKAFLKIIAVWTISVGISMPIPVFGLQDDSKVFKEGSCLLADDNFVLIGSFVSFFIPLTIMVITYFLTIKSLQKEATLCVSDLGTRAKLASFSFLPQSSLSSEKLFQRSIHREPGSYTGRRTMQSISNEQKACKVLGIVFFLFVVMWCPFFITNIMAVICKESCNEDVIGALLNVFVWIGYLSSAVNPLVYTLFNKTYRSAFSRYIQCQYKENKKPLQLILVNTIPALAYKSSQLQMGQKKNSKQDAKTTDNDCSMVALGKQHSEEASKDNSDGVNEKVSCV

[6] = target: T1, 5-hydroxytryptamine receptor 2A; experiment: Inhibition of human 5-HT2A assessed as inhibition constant
[7] = target: Sodium-dependent serotonin transporter (Homo sapiens, UniProt P31645); experiment: Inhibition of human 5-HT transporter assessed as inhibition constant
Sequence of Sodium-dependent serotonin transporter (P31645 whole entry): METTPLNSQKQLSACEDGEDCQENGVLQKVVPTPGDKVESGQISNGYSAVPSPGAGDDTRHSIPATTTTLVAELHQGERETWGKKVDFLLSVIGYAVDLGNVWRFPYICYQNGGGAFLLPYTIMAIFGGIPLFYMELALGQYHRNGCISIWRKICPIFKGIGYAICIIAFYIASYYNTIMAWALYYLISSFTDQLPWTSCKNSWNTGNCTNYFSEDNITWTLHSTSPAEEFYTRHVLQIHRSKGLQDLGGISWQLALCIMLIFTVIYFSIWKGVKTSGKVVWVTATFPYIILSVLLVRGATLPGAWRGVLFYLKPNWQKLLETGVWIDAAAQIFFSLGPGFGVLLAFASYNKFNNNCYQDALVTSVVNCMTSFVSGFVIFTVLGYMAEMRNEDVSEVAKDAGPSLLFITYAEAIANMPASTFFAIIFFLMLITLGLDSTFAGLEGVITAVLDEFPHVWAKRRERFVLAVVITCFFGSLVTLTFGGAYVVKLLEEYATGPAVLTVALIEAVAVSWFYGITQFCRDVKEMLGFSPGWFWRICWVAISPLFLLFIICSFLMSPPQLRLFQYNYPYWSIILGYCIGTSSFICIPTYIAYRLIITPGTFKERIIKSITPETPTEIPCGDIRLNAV

B-cell [8] = experiment: Induction of DNA repair in mouse B cells assessed as change in ability of splenic cells to switch from IgM to IgG1 incubated for 2 days at 1 uM in the presence of LPS by flow cytometry analysis (Rvb=9.59%); assay type: functional; conditions: time 2 day
[9] = target: L-type calcium channel (verapamil binding site) (Homo sapiens, UniProt O60840+Q01668+Q13698+Q13936); experiment: Inhibition of human L-type calcium channel verapamil binding site at 10 uM relative to control; assay type: protein assay
[10] = Inhibition of human 5-HT3 receptor expressed in HEK293T cells at 10 uM relative to control; conditions: HEK-293T
Adenosine receptor A1 = target: T2, Adenosine receptor A1 (Homo sapiens, UniProt P30542); experiment: Inhibition of human Adenosine receptor A1 assessed as inhibition constant
T2 sequence (P30542 whole entry): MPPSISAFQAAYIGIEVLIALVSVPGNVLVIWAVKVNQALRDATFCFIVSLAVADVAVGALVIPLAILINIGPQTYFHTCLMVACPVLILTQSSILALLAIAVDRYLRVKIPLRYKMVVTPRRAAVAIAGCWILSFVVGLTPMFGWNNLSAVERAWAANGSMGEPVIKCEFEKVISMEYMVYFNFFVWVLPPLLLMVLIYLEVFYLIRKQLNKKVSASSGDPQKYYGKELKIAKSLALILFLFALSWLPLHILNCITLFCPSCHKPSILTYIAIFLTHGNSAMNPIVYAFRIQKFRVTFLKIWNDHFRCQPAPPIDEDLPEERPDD

B-cell [11] = experiment: Induction of DNA repair in mouse B cells assessed as change in ability of splenic cells to switch from IgM to IgE at 1 uM incubated for 3 days in the presence of LPS plus IL-4 by flow cytometry analysis (Rvb=1.97%); assay type: functional; conditions: time 3 day
B-cell [12] = experiment: Induction of DNA repair in mouse B cells assessed as change in ability of splenic cells to switch from IgM to IgG1 at 10 uM incubated for 2 days in the presence of LPS by flow cytometry analysis (Rvb=9.59%); assay type: functional; conditions: time 2 day
B-cell [13] = experiment: Induction of DNA repair in mouse B cells assessed as change in ability of splenic cells to switch from IgM to IgG3 at 1 uM incubated for 4 days in the presence of LPS by flow cytometry analysis (Rvb=5.71%); assay type: functional; conditions: time 4 day
Adenosine receptor A2a = Adenosine receptor A2a (Homo sapiens, UniProt P29274); experiment: Inhibition of human Adenosine receptor A2a assessed as inhibition constant
Sequence of Adenosine receptor A2a (P29274 whole entry): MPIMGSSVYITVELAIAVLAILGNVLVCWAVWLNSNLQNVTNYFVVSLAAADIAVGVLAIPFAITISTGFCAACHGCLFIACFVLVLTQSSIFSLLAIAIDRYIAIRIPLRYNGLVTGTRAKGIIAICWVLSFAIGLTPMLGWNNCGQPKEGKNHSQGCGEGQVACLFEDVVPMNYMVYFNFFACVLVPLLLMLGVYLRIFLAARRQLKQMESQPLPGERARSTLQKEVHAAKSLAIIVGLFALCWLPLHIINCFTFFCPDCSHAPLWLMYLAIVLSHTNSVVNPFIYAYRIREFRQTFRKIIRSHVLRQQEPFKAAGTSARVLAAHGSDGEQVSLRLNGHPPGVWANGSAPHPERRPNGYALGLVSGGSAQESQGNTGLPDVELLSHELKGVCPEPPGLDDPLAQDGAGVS

[14] = target: KV channel (voltage-gated potassium channel) (Homo sapiens, UniProt O43525+O43526+O95259+P16389+P17658+P22001+P22459+P22460+P48547+P51787+P56696+Q03721+Q09470+Q12809+Q14003+Q14721+Q16322+Q6PIU1+Q8NCM2+Q8TAE7+Q8TDN1+Q8TDN2+Q92953+Q96KK3+Q96L42+Q96PR1+Q96RP8+Q9BQ31+Q9H252+Q9H3M0+Q9NR82+Q9NS40+Q9NSA2+Q9NZV8+Q9UIX4+Q9UJ96+Q9UK17+Q9ULD8+Q9ULS6+Q9UQ05); experiment: Inhibition of human KV channel at 10 uM relative to control; assay type: protein assay
[15] = target: T3, 5-hydroxytryptamine receptor 1A (Homo sapiens, UniProt P08908); experiment: Inhibition of human 5-HT1A assessed as inhibition constant
T3 sequence (P08908 whole entry): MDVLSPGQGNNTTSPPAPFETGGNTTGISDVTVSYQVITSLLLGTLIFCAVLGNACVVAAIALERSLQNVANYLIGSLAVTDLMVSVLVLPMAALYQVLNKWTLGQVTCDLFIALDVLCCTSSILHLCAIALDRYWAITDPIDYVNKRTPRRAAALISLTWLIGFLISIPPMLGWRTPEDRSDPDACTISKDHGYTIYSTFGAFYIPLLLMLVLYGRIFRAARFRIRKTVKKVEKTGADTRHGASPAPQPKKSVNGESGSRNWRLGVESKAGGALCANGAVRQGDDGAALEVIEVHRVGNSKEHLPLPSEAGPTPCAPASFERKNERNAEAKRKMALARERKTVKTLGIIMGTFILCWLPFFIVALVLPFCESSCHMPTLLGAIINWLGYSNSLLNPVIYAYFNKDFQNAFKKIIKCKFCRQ

B-cell [16] = experiment: Induction of DNA repair in mouse B cells assessed as change in ability of splenic cells to switch from IgM to IgG3 at 10 uM incubated for 4 days in the presence of LPS by flow cytometry analysis (Rvb=5.71%); assay type: functional; conditions: time 4 day
Adenosine receptor A3 = target: T4, Adenosine receptor A3 (Homo sapiens, UniProt P0DMS8); experiment: Inhibition of human Adenosine receptor A3 assessed as inhibition constant
T4 sequence (P0DMS8 whole entry): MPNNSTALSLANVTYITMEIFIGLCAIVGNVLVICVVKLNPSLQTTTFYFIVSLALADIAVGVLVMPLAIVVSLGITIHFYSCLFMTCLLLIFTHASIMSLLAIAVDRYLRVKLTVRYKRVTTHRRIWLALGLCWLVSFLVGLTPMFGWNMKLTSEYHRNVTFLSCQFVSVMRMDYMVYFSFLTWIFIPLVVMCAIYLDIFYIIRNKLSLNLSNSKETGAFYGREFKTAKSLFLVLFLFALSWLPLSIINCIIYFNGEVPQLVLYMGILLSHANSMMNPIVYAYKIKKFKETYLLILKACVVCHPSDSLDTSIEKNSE

B-cell [17] = experiment: Induction of DNA repair in mouse B cells assessed as change in ability of splenic cells to switch from IgM to IgE at 10 uM incubated for 3 days in the presence of LPS plus IL-4 by flow cytometry analysis (Rvb=1.97%); assay type: functional; conditions: time 3 day

Sequence of Histone-lysine N-methyltransferase KMT5C (Q86Y97 whole entry, the tested form may be a part): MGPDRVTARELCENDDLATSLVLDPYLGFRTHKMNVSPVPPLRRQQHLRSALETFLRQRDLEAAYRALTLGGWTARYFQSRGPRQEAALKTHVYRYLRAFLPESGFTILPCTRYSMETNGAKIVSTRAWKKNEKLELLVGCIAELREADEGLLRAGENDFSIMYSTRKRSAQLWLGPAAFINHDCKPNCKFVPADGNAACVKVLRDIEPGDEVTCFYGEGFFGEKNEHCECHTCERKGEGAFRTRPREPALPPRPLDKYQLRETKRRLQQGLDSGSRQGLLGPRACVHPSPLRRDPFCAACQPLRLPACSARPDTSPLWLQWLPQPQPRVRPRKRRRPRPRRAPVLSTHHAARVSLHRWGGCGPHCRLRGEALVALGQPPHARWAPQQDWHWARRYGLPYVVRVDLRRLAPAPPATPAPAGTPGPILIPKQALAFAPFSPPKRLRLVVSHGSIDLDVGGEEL

Compound: Clc1cc2nccc(NC3CCCC3)c2cc1Cl
- IC50 [1]: 1200 nM
- IC50 [2]: 590 nM

Compound: O=C(c1nnc(NC2CCCC2)c2cc(Cl)c(Cl)cc12)N1CCC(O)CC1
- Ki [3]: 1100 nM
- Ki [4]: 2700 nM
- Ki [5]: > 10 µM
- Ki [6]: 13 µM
- Ki [7]: 3.9 µM
- Activity (B-cell [8]): 10.7%
- inhibition at 10 µM [9]: 4%
- inhibition at 10 µM [10]: -5%
- Ki (Adenosine receptor A1): 3.1 µM
- Activity (B-cell [11]): 2.45%
- IC50 [1]: > 10000 nM
- Activity (B-cell [12]): 10.6%
- Activity (B-cell [13]): 5.55%
- Ki (Adenosine receptor A2a): 20 µM
- IC50 [2]: > 10000 nM
- inhibition at 10 µM [14]: -5%
- Ki [15]: > 10 µM
- Activity (B-cell [16]): 5.11%
- Ki (Adenosine receptor A3): 13 µM
- Activity (B-cell [17]): 1.94%

From ChEMBL document CHEMBL5649167, “The SUV4-20 inhibitor A-196 verifies a role for epigenetics in genomic integrity” (Nat Chem Biol, 2017)
